The target in one assay is T1, TPM3-TRKA fusion protein (Homo sapiens, UniProt P04629).
T1 construct: The resulted chimeric proteins always retain the kinase domain of TRK proteins; TPM3 (fusion partner, N-terminal part of tropomyosin alpha-3, P06753); endogenous in cells; host or cells: KM12 colon cancer cells; the other entry of the earlier key: TPM3 (P06753, Tropomyosin alpha-3 chain)
Nature of the assay: TPM3-TRKA fusion protein levels in KM12 cells (Western blot). The settings on record: read-out: Degradation (at 10 nM). It is filed as cell-based. In a few lines: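 TPM3-TRKA levels were assessed by Western blot with chemiluminescent detection and band densitometry, after SDS-PAGE of BCA-normalized RIPA lysates. Before lysis, KM12 cells received DMSO, compounds or matched control compounds at concentrations including 0.1, 1, 10 and 100 nM and 0.4–30 nM. Exposures lasted 4 h, 8–16 h or 16 h.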
For orientation: A western blot detects proteins with antibodies after separation by electrophoresis.

A further assay concerns KM12 cells. The assay is described as follows: KM12 cell viability (CellTiter-Glo). It is filed as cell-based. The note with it: Homo sapiens. In outline: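 Three-day exposure of KM12 cells (5000/well, RPMI 1640 with 10% FBS, 37 °C, 5% CO2) to compound dilution series, 3-fold over 8 or 11 points (top 1000 nM in the 8-point format) or 2-fold over 12. CellTiter-Glo readout, with IC50 fitted by nonlinear least-squares regression.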
(In general: In ATP-based viability assays light output follows the ATP content of the culture.)

Where [1] appears, read: 16 h, TPM3-TRKA degradation in KM12 cells at 10 nM.
Where [2] appears, read: 72 h, KM12 cell viability, 11-point 3-fold serial dilution, 3 days, CellTiter-Glo, read-out: IC50.

From patent US12410171B2, “Tropomyosin receptor kinase (TRK) degradation compounds and methods of use” (Cullgen (Shanghai), Inc., priority 2020, dated 2025) come the findings set out here.

Read-outs that look alike come from different tables or passages of the source. Some results are limits rather than exact numbers.

T1 sequence (P04629 with tags, fused parts or gaps): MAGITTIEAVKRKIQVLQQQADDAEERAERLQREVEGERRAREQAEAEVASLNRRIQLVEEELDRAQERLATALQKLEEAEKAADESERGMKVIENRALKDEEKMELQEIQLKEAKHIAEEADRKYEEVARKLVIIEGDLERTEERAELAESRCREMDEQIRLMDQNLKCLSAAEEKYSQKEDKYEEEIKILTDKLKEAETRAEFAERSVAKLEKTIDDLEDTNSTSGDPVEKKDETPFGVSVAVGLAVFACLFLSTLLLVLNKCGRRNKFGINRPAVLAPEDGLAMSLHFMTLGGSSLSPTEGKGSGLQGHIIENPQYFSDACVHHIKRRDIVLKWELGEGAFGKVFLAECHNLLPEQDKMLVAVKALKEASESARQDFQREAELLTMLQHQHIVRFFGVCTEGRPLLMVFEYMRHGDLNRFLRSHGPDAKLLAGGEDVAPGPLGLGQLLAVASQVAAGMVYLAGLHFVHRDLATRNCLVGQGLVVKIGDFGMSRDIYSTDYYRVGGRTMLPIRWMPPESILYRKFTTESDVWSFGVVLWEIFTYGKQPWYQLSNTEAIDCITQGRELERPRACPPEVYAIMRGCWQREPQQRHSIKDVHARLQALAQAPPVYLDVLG

Turning to `O=C1CCC(N2C(=O)c3ccc(NCCCC(=O)N4CCC(Nc5cccc(C(=O)Nc6cnn7ccc(N8CCC[C@@H]8c8cc(F)ccc8F)nc67)n5)CC4)cc3C2=O)C(=O)N1` (stereo partly drawn) [CPD-470, N-(5-((R)-2-(2,5-difluorophenyl)pyrrolidin-1-yl)pyrazolo[1,5-a]pyrimidin-3-yl)-6-((1-(4-((2-(2,6-dioxopiperidin-3-yl)-1,3-dioxoisoindolin-5-yl)amino)butanoyl)piperidin-4-yl)amino)picolinamide], the percent degradation of TPM3-TRKA protein at 0.01 µM on TPM3-TRKA fusion protein (setting [1]) was more than 80%. In addition, the half-maximal inhibitory concentration (IC50) (as a rule, the concentration that gives 50% inhibition) with KM12 cells (setting [2]) was found to be 21 nM.
On the same counts, the results for `O=C1CCC(N2C(=O)c3ccc(NCCCCCC(=O)N4CCC(Nc5cccc(C(=O)Nc6cnn7ccc(N8CCC[C@@H]8c8cc(F)ccc8F)nc67)n5)CC4)cc3C2=O)C(=O)N1` (stereo partly drawn) [CPD-471, N-(5-((R)-2-(2,5-difluorophenyl)pyrrolidin-1-yl)pyrazolo[1,5-a]pyrimidin-3-yl)-6-((1-(6-((2-(2,6-dioxopiperidin-3-yl)-1,3-dioxoisoindolin-5-yl)amino)hexanoyl)piperidin-4-yl)amino)picolinamide] are more than 80% and 19 nM.
Take `O=C1CCC(N2C(=O)c3ccc(NCCCCCCCC(=O)N4CCC(Nc5cccc(C(=O)Nc6cnn7ccc(N8CCC[C@@H]8c8cc(F)ccc8F)nc67)n5)CC4)cc3C2=O)C(=O)N1` (stereo partly drawn) [CPD-472, N-(5-((R)-2-(2,5-difluorophenyl)pyrrolidin-1-yl)pyrazolo[1,5-a]pyrimidin-3-yl)-6-((1-(8-((2-(2,6-dioxopiperidin-3-yl)-1,3-dioxoisoindolin-5-yl)amino)octanoyl)piperidin-4-yl)amino)picolinamide]: the percent degradation of TPM3-TRKA protein at 0.01 µM on TPM3-TRKA fusion protein (setting [1]) is more than 80%. In addition, in the assay on KM12 cells (setting [2]), the IC50 was found to be 37 nM.
On the same counts, the results for `O=C1CCC(N2C(=O)c3ccc(NCCOCCC(=O)N4CCC(Nc5cccc(C(=O)Nc6cnn7ccc(N8CCC[C@@H]8c8cc(F)ccc8F)nc67)n5)CC4)cc3C2=O)C(=O)N1` (stereo partly drawn) [CPD-473, N-(5-((R)-2-(2,5-difluorophenyl)pyrrolidin-1-yl)pyrazolo[1,5-a]pyrimidin-3-yl)-6-((1-(3-(2-((2-(2,6-dioxopiperidin-3-yl)-1,3-dioxoisoindolin-5-yl)amino)ethoxy)propanoyl)piperidin-4-yl)amino)picolinamide] are more than 80% and 24 nM.
On the same counts, the results for `O=C1CCC(N2C(=O)c3ccc(NCCOCCOCCC(=O)N4CCC(Nc5cccc(C(=O)Nc6cnn7ccc(N8CCC[C@@H]8c8cc(F)ccc8F)nc67)n5)CC4)cc3C2=O)C(=O)N1` (stereo partly drawn) [CPD-474, N-(5-((R)-2-(2,5-difluorophenyl)pyrrolidin-1-yl)pyrazolo[1,5-a]pyrimidin-3-yl)-6-((1-(3-(2-(2-((2-(2,6-dioxopiperidin-3-yl)-1,3-dioxoisoindolin-5-yl)amino)ethoxy)ethoxy)propanoyl)piperidin-4-yl)amino)picolinamide] are more than 80% and 18 nM.
As for `O=C1CCC(N2C(=O)c3ccc(NCCOCCOCCOCCC(=O)N4CCC(Nc5cccc(C(=O)Nc6cnn7ccc(N8CCC[C@@H]8c8cc(F)ccc8F)nc67)n5)CC4)cc3C2=O)C(=O)N1` (stereo partly drawn) [CPD-475, N-(5-((R)-2-(2,5-difluorophenyl)pyrrolidin-1-yl)pyrazolo[1,5-a]pyrimidin-3-yl)-6-((1-(3-(2-(2-(2-((2-(2,6-dioxopiperidin-3-yl)-1,3-dioxoisoindolin-5-yl)amino)ethoxy)ethoxy)ethoxy)propanoyl)piperidin-4-yl)amino)picolinamide], on TPM3-TRKA fusion protein (setting [1]), the percent degradation of TPM3-TRKA protein at 0.01 µM was more than 80%. Moreover, the IC50 in the assay on KM12 cells (setting [2]) stood at 17 nM.
The like results for `O=C1CCC(N2C(=O)c3ccc(NCCOCCOCCOCCOCCC(=O)N4CCC(Nc5cccc(C(=O)Nc6cnn7ccc(N8CCC[C@@H]8c8cc(F)ccc8F)nc67)n5)CC4)cc3C2=O)C(=O)N1` (stereo partly drawn) [CPD-476, N-(5-((R)-2-(2,5-difluorophenyl)pyrrolidin-1-yl)pyrazolo[1,5-a]pyrimidin-3-yl)-6-((1-(1-((2-(2,6-dioxopiperidin-3-yl)-1,3-dioxoisoindolin-5-yl)amino)-3,6,9,12-tetraoxapentadecan-15-oyl)piperidin-4-yl)amino)picolinamide] were, in that order, more than 80% and 22.4 nM.
The like results for `O=C1CCC(N2C(=O)c3ccc(NCCOCCOCCOCCOCCOCCC(=O)N4CCC(Nc5cccc(C(=O)Nc6cnn7ccc(N8CCC[C@@H]8c8cc(F)ccc8F)nc67)n5)CC4)cc3C2=O)C(=O)N1` (stereo partly drawn) [CPD-477, N-(5-((R)-2-(2,5-difluorophenyl)pyrrolidin-1-yl)pyrazolo[1,5-a]pyrimidin-3-yl)-6-((1-(1-((2-(2,6-dioxopiperidin-3-yl)-1,3-dioxoisoindolin-5-yl)amino)-3,6,9,12,15-pentaoxaoctadecan-18-oyl)piperidin-4-yl)amino)picolinamide] were, in that order, 50 to 80% and 51.7 nM.
In the case of `NC(=O)C1CCN(c2cc(CN3CCN(C(=O)CNc4cccc5c4C(=O)N(C4CCC(=O)NC4=O)C5=O)CC3)ccc2NC(=O)c2coc(N3CCOCC3)n2)CC1` (centres unmarked) [CPD-478, N-(2-(4-carbamoylpiperidin-1-yl)-4-((4-((2-(2,6-dioxopiperidin-3-yl)-1,3-dioxoisoindolin-4-yl)glycyl)piperazin-1-yl)methyl)phenyl)-2-morpholinooxazole-4-carboxamide], at TPM3-TRKA fusion protein (KM12, 16 h), the percent degradation of TPM3-TRKA protein at 0.01 µM was more than 80%. The same compound displayed a half-inhibitory concentration (IC50) in the assay with KM12 cells (KM12, 72 h) of 28 nM.
With `NC(=O)C1CCN(c2cc(CN3CCN(C(=O)CCNc4cccc5c4C(=O)N(C4CCC(=O)NC4=O)C5=O)CC3)ccc2NC(=O)c2coc(N3CCOCC3)n2)CC1` (centres unmarked) [CPD-479, N-(2-(4-carbamoylpiperidin-1-yl)-4-((4-(3-((2-(2,6-dioxopiperidin-3-yl)-1,3-dioxoisoindolin-4-yl)amino)propanoyl)piperazin-1-yl)methyl)phenyl)-2-morpholinooxazole-4-carboxamide], the percent degradation of TPM3-TRKA protein at 0.01 µM on TPM3-TRKA fusion protein (setting [1]) is 50 to 80%. For the same compound, in the assay on KM12 cells (setting [2]), the concentration for half-maximal inhibition (IC50) was found to be 132 nM.
The like results for `NC(=O)C1CCN(c2cc(CN3CCN(C(=O)CCCNc4cccc5c4C(=O)N(C4CCC(=O)NC4=O)C5=O)CC3)ccc2NC(=O)c2coc(N3CCOCC3)n2)CC1` (centres unmarked) [CPD-480, N-(2-(4-carbamoylpiperidin-1-yl)-4-((4-(4-((2-(2,6-dioxopiperidin-3-yl)-1,3-dioxoisoindolin-4-yl)amino)butanoyl)piperazin-1-yl)methyl)phenyl)-2-morpholinooxazole-4-carboxamide] were, in that order, more than 80% and 22 nM.
Consider `NC(=O)C1CCN(c2cc(CN3CCN(C(=O)CCCCNc4cccc5c4C(=O)N(C4CCC(=O)NC4=O)C5=O)CC3)ccc2NC(=O)c2coc(N3CCOCC3)n2)CC1` (centres unmarked) [CPD-481, N-(2-(4-carbamoylpiperidin-1-yl)-4-((4-(5-((2-(2,6-dioxopiperidin-3-yl)-1,3-dioxoisoindolin-4-yl)amino)pentanoyl)piperazin-1-yl)methyl)phenyl)-2-morpholinooxazole-4-carboxamide], for which the percent degradation of TPM3-TRKA protein at 0.01 µM on TPM3-TRKA fusion protein (setting [1]) was more than 80%. Moreover, in the assay with KM12 cells (setting [2]), the concentration for half-maximal inhibition (IC50) is 17 nM.
The like results for `NC(=O)C1CCN(c2cc(CN3CCN(C(=O)CCCCCNc4cccc5c4C(=O)N(C4CCC(=O)NC4=O)C5=O)CC3)ccc2NC(=O)c2coc(N3CCOCC3)n2)CC1` (centres unmarked) [CPD-482, N-(2-(4-carbamoylpiperidin-1-yl)-4-((4-(6-((2-(2,6-dioxopiperidin-3-yl)-1,3-dioxoisoindolin-4-yl)amino)hexanoyl)piperazin-1-yl)methyl)phenyl)-2-morpholinooxazole-4-carboxamide] were, in that order, more than 80% and 4.7 nM.
On the same counts, the results for `NC(=O)C1CCN(c2cc(CN3CCN(C(=O)CCCCCCNc4cccc5c4C(=O)N(C4CCC(=O)NC4=O)C5=O)CC3)ccc2NC(=O)c2coc(N3CCOCC3)n2)CC1` (centres unmarked) [CPD-483, N-(2-(4-carbamoylpiperidin-1-yl)-4-((4-(7-((2-(2,6-dioxopiperidin-3-yl)-1,3-dioxoisoindolin-4-yl)amino)heptanoyl)piperazin-1-yl)methyl)phenyl)-2-morpholinooxazole-4-carboxamide] are more than 80% and 5.5 nM.
Turning to `NC(=O)C1CCN(c2cc(CN3CCN(C(=O)CCCCCCCNc4cccc5c4C(=O)N(C4CCC(=O)NC4=O)C5=O)CC3)ccc2NC(=O)c2coc(N3CCOCC3)n2)CC1` (centres unmarked) [CPD-484, N-(2-(4-carbamoylpiperidin-1-yl)-4-((4-(8˜ ((2-(2,6-dioxopiperidin-3-yl)-1,3-dioxoisoindolin-4-yl)amino)octanoyl)piperazin-1-yl)methyl)phenyl)-2-morpholinooxazole-4-carboxamide], at TPM3-TRKA fusion protein (setting [1]), the percent degradation of TPM3-TRKA protein at 0.01 µM is more than 80%. Further, the IC50 in the assay on KM12 cells (setting [2]) turned out to be 42 nM.
On the same counts, the results for `NC(=O)C1CCN(c2cc(CN3CCN(C(=O)CCOCCNc4cccc5c4C(=O)N(C4CCC(=O)NC4=O)C5=O)CC3)ccc2NC(=O)c2coc(N3CCOCC3)n2)CC1` (centres unmarked) [CPD-485, N-(2-(4-carbamoylpiperidin-1-yl)-4-((4-(3-(2-((2-(2,6-dioxopiperidin-3-yl)-1,3-dioxoisoindolin-4-yl)amino)ethoxy)propanoyl)piperazin-1-yl)methyl)phenyl)-2-morpholinooxazole-4-carboxamide] are 50 to 80% and 94 nM.
